Calls of active or inactive are those of the source. The rule behind the calls is not given here.
Columns and labels:
Assay type in all cases: functional, cell-based
[1] = tested on: HeLa; assay: Antiproliferative activity against human HeLa cells assessed as reduction in cell viability by MTT assay
[2] = tested on: A549; assay: Antiproliferative activity against human A549 cells assessed as reduction in cell viability by SRB assay
[3] = tested on: HCT-116; assay: Antiproliferative activity against human HCT116 cells assessed as reduction in cell viability by SRB assay

Structure (SMILES)	Activity [1]	Activity [2]	Activity [3]	IC50 [1]	IC50 [2]	IC50 [3]
O=C1C[C@H](O)[C@@H]2c3c(ccc(O)c31)-c1ccc(O)c3c1[C@@]2(O)CCC3=O	inactive	inactive	inactive	–	–	–
O=C1C[C@@H]2[C@@H]3C(=O)c4c(O)cccc4[C@@H]([C@@H]3O)[C@@H]2c2cccc(O)c21	inactive	inactive	inactive	–	–	–
O=C1C[C@H](O)[C@@H]2c3c(ccc(O)c31)-c1ccc(O)c3c1[C@@]2(O)C=CC3=O	–	–	–	3100 nM	2600 nM	2400 nM
O=C1C[C@@H](O)[C@@H]2c3ccc(O)c4c3[C@@H](c3ccc(O)c1c32)[C@H](O)CC4=O	inactive	inactive	inactive	–	–	–

Reference: ChEMBL document CHEMBL4414634, “Alternatone A, an Unusual Perylenequinone-Related Compound from a Soft-Coral-Derived Strain of the Fungus Alternaria alternata” (J Nat Prod, 2019)
